In ChEMBL document CHEMBL1201862, “PubChem BioAssay data set” (2004):
The source made the active and inactive calls.

Key:
[1] = target: Glyceraldehyde-3-phosphate dehydrogenase (Homo sapiens, UniProt P04406)
[2] = target: T1, Bcl-2-related protein A1 (Mus musculus, UniProt Q07440); assay: small-molecule antagonists of Bfl-1/BH3 interaction – biochemical, TR-FRET, mouse Bfl-1, confirmation (AID 621);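 note: TR-FRET binding of GST-Bfl-1 to FITC-labelled Bid peptide via terbium antibody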
T1 sequence (Q07440 whole entry): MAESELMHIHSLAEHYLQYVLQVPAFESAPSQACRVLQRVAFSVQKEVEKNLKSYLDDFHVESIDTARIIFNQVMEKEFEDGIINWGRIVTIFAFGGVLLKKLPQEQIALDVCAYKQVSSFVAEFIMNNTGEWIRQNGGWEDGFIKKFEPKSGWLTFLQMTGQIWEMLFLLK

[3] = target: T1, Bcl-2-related protein A1; assay: Bfl-1 binding inhibitors, SAR follow-up, biochemical, fluorescence polarization (AID 1070)
[4] = target: Eukaryotic translation initiation factor 4E (Mus musculus, UniProt P63073); assay: blockers of eIF4G binding by eIF4E – biochemical, TR-FRET, dose response (AID 855); assay type: functional;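 note: potency for disrupting eIF4E binding to eIF4GI seen as loss of FRET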
Sequence of Eukaryotic translation initiation factor 4E (P63073 whole entry): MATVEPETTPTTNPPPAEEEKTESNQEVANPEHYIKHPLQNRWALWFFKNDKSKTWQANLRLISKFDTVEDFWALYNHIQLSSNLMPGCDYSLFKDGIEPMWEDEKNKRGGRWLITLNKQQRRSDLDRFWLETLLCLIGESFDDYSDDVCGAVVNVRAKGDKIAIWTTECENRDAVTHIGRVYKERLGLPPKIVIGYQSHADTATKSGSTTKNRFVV

[5] = target: Eukaryotic translation initiation factor 4H (Homo sapiens, UniProt Q15056); assay: eIF4H binding inhibition – biochemical, uHTS, fluorescence polarization, translation initiation inhibitor project, primary screen (AID 2012)
[6] = target: Polyadenylate-binding protein 1 (Homo sapiens, UniProt P11940); assay: blockers of PABP interaction with poly(A) – biochemical, fluorescence polarization, […] (AID 2014)
Sequence of Polyadenylate-binding protein 1 (P11940 whole entry): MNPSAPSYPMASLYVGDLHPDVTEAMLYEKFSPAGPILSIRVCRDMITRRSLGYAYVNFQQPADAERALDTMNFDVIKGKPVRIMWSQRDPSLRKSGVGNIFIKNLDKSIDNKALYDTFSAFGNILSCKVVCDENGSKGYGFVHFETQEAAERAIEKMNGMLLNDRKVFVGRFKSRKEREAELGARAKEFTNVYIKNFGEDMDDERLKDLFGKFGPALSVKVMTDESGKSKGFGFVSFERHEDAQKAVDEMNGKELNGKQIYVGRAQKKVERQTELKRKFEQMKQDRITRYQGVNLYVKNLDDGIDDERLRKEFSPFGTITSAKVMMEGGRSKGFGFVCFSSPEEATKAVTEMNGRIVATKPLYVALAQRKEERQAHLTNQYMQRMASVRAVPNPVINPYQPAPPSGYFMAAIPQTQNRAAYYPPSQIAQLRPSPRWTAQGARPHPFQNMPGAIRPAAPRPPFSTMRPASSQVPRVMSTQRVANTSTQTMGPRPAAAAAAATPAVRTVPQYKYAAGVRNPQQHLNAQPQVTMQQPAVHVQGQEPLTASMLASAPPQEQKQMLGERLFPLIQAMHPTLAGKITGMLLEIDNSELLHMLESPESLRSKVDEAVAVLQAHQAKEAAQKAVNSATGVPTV

[7] = target: DNA dC->dU-editing enzyme APOBEC-3A (Homo sapiens, UniProt P31941); assay: Dose Response confirmation of small molecule APOBEC3A DNA Deaminase Inhibitors via a fluorescence-based single-stranded DNA deaminase assay. [Related pubchem assays (depositor defined):AID493011, AID493024]; assay type: functional
Sequence of DNA dC->dU-editing enzyme APOBEC-3A (P31941 whole entry): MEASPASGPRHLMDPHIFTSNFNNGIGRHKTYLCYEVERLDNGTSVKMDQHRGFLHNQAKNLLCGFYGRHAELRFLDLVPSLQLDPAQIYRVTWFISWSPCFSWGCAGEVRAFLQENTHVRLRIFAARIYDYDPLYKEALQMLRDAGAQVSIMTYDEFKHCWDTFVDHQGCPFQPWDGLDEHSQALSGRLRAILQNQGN

[8] = target: DNA dC->dU-editing enzyme APOBEC-3G (Homo sapiens, UniProt Q9HC16); assay type: functional;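 note: Dose-response counterscreen measuring inhibition of APOBEC3G DNA deaminase activity, run while confirming APOBEC3A inhibitors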
Sequence of DNA dC->dU-editing enzyme APOBEC-3G (Q9HC16 whole entry): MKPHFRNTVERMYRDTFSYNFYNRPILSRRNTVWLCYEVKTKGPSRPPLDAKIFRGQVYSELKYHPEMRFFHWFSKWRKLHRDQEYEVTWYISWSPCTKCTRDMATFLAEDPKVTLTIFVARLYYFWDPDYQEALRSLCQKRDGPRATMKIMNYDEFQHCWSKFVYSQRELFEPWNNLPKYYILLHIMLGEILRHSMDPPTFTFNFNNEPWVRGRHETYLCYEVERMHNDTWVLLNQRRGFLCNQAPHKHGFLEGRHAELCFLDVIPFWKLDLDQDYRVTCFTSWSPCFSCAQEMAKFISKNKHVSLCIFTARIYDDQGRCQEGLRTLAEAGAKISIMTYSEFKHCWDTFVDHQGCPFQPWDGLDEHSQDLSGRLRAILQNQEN

[9] = Trypanosoma cruzi growth suppression in host cells – NIH3T3 host cells, beta-gal luminescence, confirmation (AID 2044); assay type: functional, cell-based;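 note: intracellular parasites grown in NIH/3T3 mouse fibroblasts as host cells; luminescent beta-galactosidase reporter signal from transgenic T. cruzi replicating inside host cells; inhibitors lower the luminescence signal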
[10] = NIH3T3 cell viability loss – ATP luminescence, mouse fibroblasts, counter-screen, dose response (AID 2010); assay type: functional, cell-based;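 note: cells exposed to compound for about 90 hours before reading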
[11] = cells
[12] = target: T2, Short transient receptor potential channel 4 (Mus musculus, UniProt Q9QUQ5); assay: calcium entry via TRPC4 opening agents – cell-based, HEK293 TRPC4/mu-opioid, Fluo-4 calcium, dose response (AID 434937); assay type: functional
T2 sequence (Q9QUQ5 whole entry): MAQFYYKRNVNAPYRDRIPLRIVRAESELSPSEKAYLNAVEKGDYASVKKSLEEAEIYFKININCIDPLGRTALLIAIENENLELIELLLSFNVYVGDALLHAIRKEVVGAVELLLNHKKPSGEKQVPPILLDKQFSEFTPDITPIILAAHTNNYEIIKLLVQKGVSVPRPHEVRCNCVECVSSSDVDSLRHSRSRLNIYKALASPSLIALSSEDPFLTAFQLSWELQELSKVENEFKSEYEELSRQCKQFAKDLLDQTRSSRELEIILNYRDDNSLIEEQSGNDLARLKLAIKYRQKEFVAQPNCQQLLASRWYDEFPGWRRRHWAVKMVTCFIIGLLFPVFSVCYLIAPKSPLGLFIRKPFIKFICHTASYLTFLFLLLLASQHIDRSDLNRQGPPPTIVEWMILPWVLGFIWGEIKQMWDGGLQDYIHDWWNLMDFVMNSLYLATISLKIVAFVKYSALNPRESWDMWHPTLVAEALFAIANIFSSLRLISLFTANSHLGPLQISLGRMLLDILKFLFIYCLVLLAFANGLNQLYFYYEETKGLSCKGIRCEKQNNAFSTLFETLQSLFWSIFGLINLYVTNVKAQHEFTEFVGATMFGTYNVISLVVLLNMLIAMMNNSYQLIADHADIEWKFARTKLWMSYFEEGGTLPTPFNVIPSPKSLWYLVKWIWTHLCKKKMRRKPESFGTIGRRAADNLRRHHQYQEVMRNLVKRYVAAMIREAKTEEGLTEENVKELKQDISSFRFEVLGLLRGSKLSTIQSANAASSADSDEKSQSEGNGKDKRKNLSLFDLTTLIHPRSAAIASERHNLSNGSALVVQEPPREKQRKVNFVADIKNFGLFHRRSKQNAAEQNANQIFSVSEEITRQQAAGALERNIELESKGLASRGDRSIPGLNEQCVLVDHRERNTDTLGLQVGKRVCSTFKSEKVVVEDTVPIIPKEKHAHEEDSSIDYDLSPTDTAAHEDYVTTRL

[13] = target: T3, Estrogen receptor (Homo sapiens, UniProt P03372);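 note: potency for inhibiting coactivator peptide recruitment to the receptor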
T3 sequence (P03372 whole entry): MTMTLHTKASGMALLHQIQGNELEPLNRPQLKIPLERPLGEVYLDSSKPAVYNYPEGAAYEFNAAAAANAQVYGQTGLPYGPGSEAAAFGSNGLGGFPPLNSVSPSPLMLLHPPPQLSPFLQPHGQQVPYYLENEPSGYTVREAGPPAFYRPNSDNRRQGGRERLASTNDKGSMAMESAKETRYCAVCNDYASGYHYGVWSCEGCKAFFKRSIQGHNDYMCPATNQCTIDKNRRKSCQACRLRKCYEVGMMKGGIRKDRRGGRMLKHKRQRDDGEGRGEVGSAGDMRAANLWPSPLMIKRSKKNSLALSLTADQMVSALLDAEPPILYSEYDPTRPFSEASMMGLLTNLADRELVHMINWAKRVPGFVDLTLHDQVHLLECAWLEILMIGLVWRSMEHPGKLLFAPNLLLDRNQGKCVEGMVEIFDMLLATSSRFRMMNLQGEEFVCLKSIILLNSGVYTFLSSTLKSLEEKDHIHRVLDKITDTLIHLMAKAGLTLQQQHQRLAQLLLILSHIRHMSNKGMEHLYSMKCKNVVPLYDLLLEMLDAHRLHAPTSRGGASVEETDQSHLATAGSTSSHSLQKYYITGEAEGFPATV

[14] = target: Voltage-dependent T-type calcium channel subunit alpha-1H (Homo sapiens, UniProt O95180); assay type: functional;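 note: channel activity triggered by adding a high calcium stimulation buffer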
Sequence of Voltage-dependent T-type calcium channel subunit alpha-1H (O95180 whole entry): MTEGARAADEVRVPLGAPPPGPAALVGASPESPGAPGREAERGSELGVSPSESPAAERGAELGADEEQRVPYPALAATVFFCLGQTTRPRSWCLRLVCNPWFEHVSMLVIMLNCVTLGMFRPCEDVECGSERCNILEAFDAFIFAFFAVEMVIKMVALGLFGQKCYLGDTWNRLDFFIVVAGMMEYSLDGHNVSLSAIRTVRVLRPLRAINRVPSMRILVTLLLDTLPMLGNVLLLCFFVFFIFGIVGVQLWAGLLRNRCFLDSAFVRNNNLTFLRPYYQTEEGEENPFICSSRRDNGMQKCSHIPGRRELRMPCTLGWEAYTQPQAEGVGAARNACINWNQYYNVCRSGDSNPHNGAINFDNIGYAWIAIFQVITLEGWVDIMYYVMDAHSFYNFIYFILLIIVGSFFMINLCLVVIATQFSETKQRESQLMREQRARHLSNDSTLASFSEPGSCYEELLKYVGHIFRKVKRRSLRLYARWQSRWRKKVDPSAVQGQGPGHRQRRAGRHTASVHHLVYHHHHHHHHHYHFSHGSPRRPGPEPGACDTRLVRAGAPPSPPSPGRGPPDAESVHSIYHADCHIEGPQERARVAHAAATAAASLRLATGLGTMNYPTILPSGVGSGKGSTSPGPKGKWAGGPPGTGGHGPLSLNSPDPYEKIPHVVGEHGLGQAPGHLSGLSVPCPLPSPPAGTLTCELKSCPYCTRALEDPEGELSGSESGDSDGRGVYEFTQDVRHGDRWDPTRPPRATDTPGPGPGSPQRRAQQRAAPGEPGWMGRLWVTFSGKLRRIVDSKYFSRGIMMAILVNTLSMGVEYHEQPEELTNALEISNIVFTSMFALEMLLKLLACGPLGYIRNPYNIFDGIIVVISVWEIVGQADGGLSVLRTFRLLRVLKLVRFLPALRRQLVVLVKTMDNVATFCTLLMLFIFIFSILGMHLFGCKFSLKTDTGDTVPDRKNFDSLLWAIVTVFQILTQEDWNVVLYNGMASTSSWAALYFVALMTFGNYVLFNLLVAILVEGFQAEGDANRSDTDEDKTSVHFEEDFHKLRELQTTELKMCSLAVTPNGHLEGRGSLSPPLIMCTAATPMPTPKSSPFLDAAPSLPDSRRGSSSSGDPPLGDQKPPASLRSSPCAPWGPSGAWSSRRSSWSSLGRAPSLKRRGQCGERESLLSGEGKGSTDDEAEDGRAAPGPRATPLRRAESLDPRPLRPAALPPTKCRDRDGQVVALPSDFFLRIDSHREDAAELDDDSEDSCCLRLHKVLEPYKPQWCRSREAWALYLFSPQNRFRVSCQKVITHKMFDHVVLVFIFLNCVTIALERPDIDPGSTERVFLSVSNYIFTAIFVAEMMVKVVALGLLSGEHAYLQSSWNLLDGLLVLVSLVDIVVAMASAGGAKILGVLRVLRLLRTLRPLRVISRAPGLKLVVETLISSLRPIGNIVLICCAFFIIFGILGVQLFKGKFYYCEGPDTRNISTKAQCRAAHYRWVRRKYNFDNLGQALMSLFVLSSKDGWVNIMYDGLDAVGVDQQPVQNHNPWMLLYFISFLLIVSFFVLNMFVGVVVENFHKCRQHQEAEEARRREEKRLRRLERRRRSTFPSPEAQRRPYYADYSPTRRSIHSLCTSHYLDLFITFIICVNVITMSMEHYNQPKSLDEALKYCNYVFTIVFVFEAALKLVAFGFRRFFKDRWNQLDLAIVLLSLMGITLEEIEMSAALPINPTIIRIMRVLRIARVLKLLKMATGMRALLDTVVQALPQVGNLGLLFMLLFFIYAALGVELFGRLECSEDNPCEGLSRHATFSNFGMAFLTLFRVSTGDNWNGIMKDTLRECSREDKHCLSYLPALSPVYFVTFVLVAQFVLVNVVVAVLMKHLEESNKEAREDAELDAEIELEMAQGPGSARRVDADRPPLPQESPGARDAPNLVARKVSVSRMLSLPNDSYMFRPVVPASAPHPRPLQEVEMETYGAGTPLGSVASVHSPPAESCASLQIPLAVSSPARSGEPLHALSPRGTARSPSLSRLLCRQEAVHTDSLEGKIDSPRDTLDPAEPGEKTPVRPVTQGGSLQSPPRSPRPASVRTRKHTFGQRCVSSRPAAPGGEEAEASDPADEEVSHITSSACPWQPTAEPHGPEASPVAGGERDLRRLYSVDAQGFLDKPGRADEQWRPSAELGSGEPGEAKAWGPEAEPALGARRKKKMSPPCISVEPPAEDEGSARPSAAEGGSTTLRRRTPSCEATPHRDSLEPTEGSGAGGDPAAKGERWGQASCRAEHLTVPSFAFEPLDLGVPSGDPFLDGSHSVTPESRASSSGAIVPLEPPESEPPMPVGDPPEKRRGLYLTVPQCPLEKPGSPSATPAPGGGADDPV

[15] = viability of uninfected HEp-2 cells – cell-based, HTS, cytotoxicity control for RSV inhibitor project, dose response (AID 2410); assay type: functional; conditions: human respiratory syncytial virus
[16] = cells; remark: listed apart in the source

Sequence of Glyceraldehyde-3-phosphate dehydrogenase (P04406 whole entry): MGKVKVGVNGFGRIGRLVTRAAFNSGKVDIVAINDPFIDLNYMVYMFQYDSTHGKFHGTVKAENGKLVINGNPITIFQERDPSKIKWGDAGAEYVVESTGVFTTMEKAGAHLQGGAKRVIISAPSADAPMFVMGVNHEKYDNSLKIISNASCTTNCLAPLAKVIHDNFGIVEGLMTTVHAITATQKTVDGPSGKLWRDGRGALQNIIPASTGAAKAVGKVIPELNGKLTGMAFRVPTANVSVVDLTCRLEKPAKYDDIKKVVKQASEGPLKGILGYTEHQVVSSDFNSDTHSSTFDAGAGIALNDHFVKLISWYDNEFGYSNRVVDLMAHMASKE

In the case of CN1CCN(C2=C(Cl)C(=O)N(c3ccccc3Cl)C2=O)CC1, the IC50 [1] is reported as > 100 µM (not active), the IC50 [2] is reported as 1.45 µM (active) and the IC50 [3] is reported as 2.16 µM (active).
With CCNc1ccc(C(=O)OCC(=O)NC(C)c2ccccc2)cc1[N+](=O)[O-] (stereo unspecified) the IC50 [4] was > 64 µM (inactive).
With C=CCNC1=N[C@@H](c2cccc(C(F)(F)F)c2)C(C(=O)OC)=C(C)N1CC the IC50 [5] was > 100 µM (inactive), the IC50 [6] was 9.23 µM (active) and the IC50 [7] was 3.56 µM (active). For the same compound, the IC50 [8] was 3.81 µM (active).
With C=CCn1c(S)nnc1-c1ccoc1 the IC50 [4] was > 64 µM (inactive).
With COc1ccc(CCNCc2ccc(OCc3ccc(Cl)nc3)c(OC)c2)cc1OC the EC50 [9] was < 0.1 µM (active), the EC50 [10] was > 60 µM (inconclusive) and the EC50 [11] was 0.048 µM (active).
In the case of O=C(NC1CCCCCCC1)C1CCN(S(=O)(=O)N2CCCC2)CC1, the IC50 [4] is reported as > 64 µM (inactive).
With COc1ccccc1/C=C/CN1CCCC(CCC(=O)NCc2ccccc2F)C1 (stereo unspecified) the EC50 [9] was < 0.1 µM (active), the EC50 [10] was > 60 µM (not active) and the EC50 [12] was 0.473 µM (active). For the same compound, the EC50 [11] was 0.025 µM (active).
In the case of Cc1cc(NC(=O)CSc2cn(CCNC(=O)c3ccc(Cl)cc3)c3ccccc23)no1, the IC50 [13] is reported as 24.9 µM (active) and the EC50 [14] is reported as 0.13 µM (active).
In the case of Cc1ccc(OCCn2c(C3CC(=O)N(Cc4ccccc4)C3)nc3ccccc32)cc1 (stereo unspecified), the CC50 [15] is reported as 25.4 µM (active) and the IC50 [16] is reported as 3.14 µM (active).
